Assay results taken from patent publication US20250074946A1, “USE OF SE-DR AFFINITY PEPTIDE IN PREPARING DRUG FOR TREATING RHEUMATIC DISEASE” (HEBEI FITNESS BIOTECHNOLOGY CO., LTD., priority 2021, published 2025).
Where no end group is shown, it is not given here.

Columns and labels:
PBMC = PBMC stimulation test, IL-6 in supernatant by ELISA; assay type: cell-based, human; conditions: PBMC 1×10^6 cell/ml, peptide 10 μg/ml, 5 days of culture
Procedure, shortened: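 Human PBMC isolated from blood by Ficoll density centrifugation, seeded at 1×10^6 cell/ml in 1640 complete medium with peptide at final 10 μg/ml. Cultured 5 days; IL-6 in supernatant measured by ELISA.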

CIA rats = assay: CIA rat model: inflammation score AUC and peripheral blood T-cell subtypes (Example 3); assay type: in vivo; conditions: 0.2 mmol
Procedure, shortened: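 Female Lewis rats with arthritis induced by intradermal tail-base injection of bovine type II collagen in incomplete Freund's adjuvant; paws examined daily. Polypeptide at 0.2 mmol given intravenously via tail vein every other day for 15 days. Efficacy as AUC of inflammation score, scored every other day from enrolment until end of dosing.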

[1] = test system: immune system of healthy rats; assay: Immune indicators of SD rats after one month of administration (Example 4); assay type: in vivo, rat; conditions: once a day for 4 weeks, end of administration
Procedure: SD rats were used to investigate the effects of the SE-DR affinity peptides on the immune indicators of the rats after continuous administration for one month. […] At the end of administration, analysis was conducted on the serum anti-FNS007 antibodies, different types of serum immunoglobulins, the serum complement, the peripheral blood T lymphocyte and the serum cytokines.

[2] = test system: immune system of healthy monkeys; assay: Immune indicators of cynomolgus monkeys after one month of administration (Example 5); assay type: in vivo, cynomolgus monkey; conditions: once a day for 4 weeks, end of administration
Excerpt: Cynomolgus monkeys were used to investigate the effects of the SE-DR affinity peptide on the immune indicators of cynomolgus monkeys after continuous administration for one month. […] At the end of administration, the immune indicators, including the serum anti-FNS007 antibodies, the immunoglobulins of different serotypes, the serum complement, the peripheral blood T lymphocyte and the serum cytokines, were observed.

[3] = test system: CIA mice infected with chronic hepatitis B; assay: CIA mice infected with chronic hepatitis B (Example 8); assay type: in vivo, mouse
Procedure, shortened: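 DBA/1 mice given rAAV8-1.3HBV (1×10^12 vg/mL) i.v.; 2 days later immunised intradermally with bovine CII/CFA (100 μg collagen), boosted i.p. at day 21 with CII/IFA. Randomised at paw score 1; drugs i.v. every other day for 27 days. Paw inflammation scores, serum viral and liver-function markers measured.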

[4] = test system: CIA rats with latent tuberculosis infection
[5] = peripheral blood, […] after end of administration, flow cytometry

FKGEQAGAGE [APL2] was tested, and the “IL-6 levels in the supernatant” value (PBMC) was 2.3 ng/mL, the “Inflammation score and area under the time curve (AUC)” value (“Inflammation score and area” for short) (CIA rats; female Lewis CIA rats, tail vein once every other day for 15 days) was 52.37 ± 33.69 and the “Th1 (%)” value (CIA rats; [5]) was 0.16 ± 0.09 %. For the same sequence, the “Th2 (%)” value (CIA rats; [5]) was 4.53 ± 0.50 %, the “Th17 (%)” value (CIA rats; [5]) was 0.87 ± 0.09 % and the “Treg (%)” value (CIA rats; [5]) was 5.52 ± 0.68 %. For the same sequence, the CD3% [1] was 37.4 ± 10.52%, the CD4% [1] was 19.77 ± 6.05% and the CD8% [1] was 17.29 ± 7.09%. For the same sequence, the IFN-γ [1] was 2.47 ± 0.36 pg/mL, the IL-2 [1] was 3.69 ± 3.03 pg/mL and the IL-4 [1] was 1.96 ± 1.26 pg/mL. It also gave a TNF-α [1] of 5.13 ± 1.83 pg/mL, a CD3% [2] of 63.37 ± 16.35% and a CD4% [2] of 27.33 ± 6.66%. It also gave a CD8% [2] of 21.74 ± 4.37%, an IFN-γ [2] of 5.09 ± 0.52 pg/mL and an IL-2 [2] of 4.62 ± 0.86 pg/mL. For the same sequence, the IL-4 [2] was 2.12 ± 0.42 pg/mL, the TNF-α [2] was 2.42 ± 0.51 pg/mL and the ALT level ([3]; at sacrifice, day 28) was 45.88 ± 19.74 U/L. The “Hepatitis B activation rate (Ratio of ALT > 100 U/L)” value ([3]; at sacrifice, day 28) was 0%, the “Observation on the daily condition of mice” value ([3]; during administration) was “No abnormality” and the “Inflammation score and area” value ([3]; peptides 50 μmol, Abatacept 100 μg, tail i.v. once every other day for 27 days) was 89.86 ± 46.14. The “Observation on the daily condition of rats” value ([4]; during administration) was “No abnormality”, the Tuberculosis recurrence rate ([4]; peptides 0.2 mmol, adalimumab 1 mg/kg, 21 days) was 0% and the “Inflammation score and area” value ([4]; peptides 0.2 mmol, adalimumab 1 mg/kg, tail i.v. once every other day for 21 days) was 48.03 ± 31.91. For the same sequence, the “Culture of MTB from lungs and spleens of rats at sacrifice” value ([4]; sacrifice on day 22, peptides 0.2 mmol, adalimumab 1 mg/kg) was “Negative”.
